# Measurements reported in patent US7670613B2, “Androgen modulators” (Pfizer Inc., priority 2004, dated 2010).
# Read-outs that look alike come from different tables or passages of the source.
# Target: T1, androgen receptor (Homo sapiens, UniProt P10275, Q868H)
# T1 construct: a human breast tumor cell line expressing androgen receptor; endogenous in cells; host or cells: MDA-MB453-MMTV clone 54-19 (only the MMTV-luciferase reporter was transfected)
# T1 sequence (P10275 1-920 Q868H): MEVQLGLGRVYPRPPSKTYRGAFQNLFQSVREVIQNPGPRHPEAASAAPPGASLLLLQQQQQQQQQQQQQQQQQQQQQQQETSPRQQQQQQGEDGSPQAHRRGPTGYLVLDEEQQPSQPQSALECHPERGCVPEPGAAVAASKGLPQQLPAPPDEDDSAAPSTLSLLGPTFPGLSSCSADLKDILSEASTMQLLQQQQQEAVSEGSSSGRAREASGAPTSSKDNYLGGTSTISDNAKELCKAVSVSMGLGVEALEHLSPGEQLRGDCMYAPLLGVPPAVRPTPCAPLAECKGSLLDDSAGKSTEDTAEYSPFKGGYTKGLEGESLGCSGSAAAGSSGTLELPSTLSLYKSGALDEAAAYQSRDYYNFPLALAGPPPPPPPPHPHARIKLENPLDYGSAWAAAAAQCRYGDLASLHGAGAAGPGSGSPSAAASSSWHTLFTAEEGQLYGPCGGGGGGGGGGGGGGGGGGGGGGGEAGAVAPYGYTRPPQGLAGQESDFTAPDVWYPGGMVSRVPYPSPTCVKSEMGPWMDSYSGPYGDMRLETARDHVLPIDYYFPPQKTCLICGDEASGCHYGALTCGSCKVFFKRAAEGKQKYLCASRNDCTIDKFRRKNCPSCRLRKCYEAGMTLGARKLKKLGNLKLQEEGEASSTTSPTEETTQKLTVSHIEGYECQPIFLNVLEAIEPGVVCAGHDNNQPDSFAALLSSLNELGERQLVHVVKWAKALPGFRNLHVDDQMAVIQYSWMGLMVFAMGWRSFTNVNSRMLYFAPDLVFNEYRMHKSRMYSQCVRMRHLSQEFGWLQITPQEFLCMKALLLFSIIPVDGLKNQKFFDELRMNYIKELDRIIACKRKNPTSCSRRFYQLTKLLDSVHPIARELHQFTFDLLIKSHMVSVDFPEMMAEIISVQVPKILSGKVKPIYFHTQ
# Assay: AR antagonist cell assay (MDA-MB453-MMTV clone 54-19, luciferase reporter)
# Type: cell-based
# Conditions: 100 pM DHT, 17 hr, mean of multiple tests
# Experimental: The compounds ability to antagonize the effects of androgen on the androgen receptor were determined in a whole cell assay as described immediately below.
# Experimental Procedure for AR Antagonist Cell Assay
# This cell line is a stable transfected cell line with MDA-MB453 cell background (a human breast tumor cell line expressing androgen receptor). A MMTV minimal promoter containing ARE was first cloned in front of a firefly luciferase reporter gene. Then the cascade was cloned into transfection vector pUV120puro. Electroporation method was used for transfecting MDA-MB-453 cell. Puromycin resistant stable cell line was selected.
# Cell Culture Media and Reagents:
# Culture medium: DMEM (high glucose, Gibco cat #: 11960-044), 10% FBS, and 1% L-glutamine
# Plating medium: DMEM (phenol red free), 10% charcoal treated HyClone serum, 1% L-glutamine
# Assay medium: DMEM (phenol red free), 1% charcoal treated HyClone serum, 1% L-glutamine, and 1% penicillin/streptomycin
# 3× luciferase buffer: 2% beta-mercaptoethanol, 0.6% ATP, 0.0135% luciferine in cell lysis buffer
# • 1. Cells are maintained in culture medium, splitting cells when they reach 80-90% confluence • 2. To test compounds, 10,000 cells/well are plated to opaque 96 cell culture plate in 100 ul/well plating medium, culture for overnight at 37° C. in cell culture incubator • 3. Carefully remove plating medium, then add 80 ul/well of pre-warmed assay medium, add 10 ul/well testing compound (final concentration at) 1000 nM, 200 nM, 40 nM, 8 nM, 1.6 nM, and 0.32 nM), incubate at 37° C. for 30 minutes • 4. Add 10 ul/well freshly prepared DHT (final concentration at 100 pM) to each well, incubate at 37° C. for 17 hr (overnight) • 5.
# The results are reported as the mean of multiple tests as described below (the numbers of tests are indicated in the footnote). N.D. denotes that the compound was not tested.
# [1] = AR Cell IC50, MDA-MB453-MMTV clone 54-19 cells
Structure (SMILES),IC50 [1] [µM],"IC50 (MDA-MB453-MMTV clone 54-19 cells, read-out: AR Cell IC50) [µM]"
"N#Cc1ccc(O[C@@H]2CCCC[C@H]2C#N)cc1C(F)(F)F (single isomer, unassigned) [Example 72, (trans)-(−)-4-(2-Cyano-cyclohexyloxy)-2-trifluoromethyl-benzonitrile]",0.012,–
"N#Cc1ccc(O[C@@H]2CCCCC2C#N)cc1C(F)(F)F (stereo in doubt) [Example 14, -4-(2-Cyano-cyclohexyloxy)-2-trifluoromethyl-benzonitrile]",0.013,–
"CC1CCCCC1Oc1ccc(C#N)c(C(F)(F)F)c1 (stereo not drawn) [Example 8, 4-(2-Methyl-cyclohexyloxy)-2-trifluoromethyl-benzonitrile]",–,0.494
